Patent publication US10792289B2 (Horizon Orphan LLC, priority 2009, dated 2020)

Experiments:
stable CF patients [1] = experiment: Phase 1b study: pulmonary function tests (FEV1); type: in vivo, human
Procedure: All patients had had P. aeruginosa cultured from sputum within the previous 24 months and at the screening visit. Study drug was administered twice daily for up to 14 days at three doses by aerosol using a PART eFlow device. Respirable delivered doses (RDD) were approximately 40 mg, 80 mg, and 120 mg per treatment, corresponding to loaded doses of 78 mg, 175 mg, and 260 mg, respectively. Thus, the estimated total daily RDDs were 80 mg, 160 mg, and 240 mg. Study drugs were administered at 30 mg/ml (for 40 mg dose) or 50 mg/ml (for 80 mg and 120 mg doses).
In Table 3, relative change from baseline (CBG) was calculated as ‘Result’ FEV1 minus ‘Baseline’ FEV1 divided by ‘Baseline’ FEV1.

stable CF patients [2] = experiment: Phase 2 study: CFQ-R questionnaire; type: in vivo, human
Procedure: The following dosage regimens (as nebulizer loaded doses) were evaluated: 120 mg QD (daily); 240 mg QD (daily); and 240 mg BID (twice daily).
Patients were assessed on Day 1, 7, 14, and 28, and then up to 28 days after completion of study drug, namely, Days 42 and 56. The end of the study was defined as the last visit of the last patient.
Efficacy was evaluated by microbiologic assessment of sputum samples, time to need for anti-pseudomonal antimicrobials, the Cystic Fibrosis Questionaire-Revised (CFQ-R), and pulmonary function tests. […] Pair-wise comparisons between all the treatment arms were conducted as secondary analyses.
Patients completed the CFQ-R questionnaire with domains that included: respiratory, body image, digestion, eating, emotion, health perception, physical, role/school, social, treatment burden, vitality, and weight.

[3] = 80 mg RDD BID, Day 1 predose baseline
[4] = 120 mg RDD BID, Day 1 predose baseline
[5] = EE population, Combined 240 mg QD and BID

SMILES: C[C@H]1COc2c(N3CCN(C)CC3)c(F)cc3c(=O)c(C(=O)O)cn1c23 [Levofloxacin, levofloxacin]
- FEV1, median (stable CF patients [1]; 40 mg RDD BID, Day 1 predose baseline): 2.30 L
- FEV1, median (stable CF patients [1]; 40 mg RDD BID, Day 2 predose): 2.32 L
- FEV1, median (stable CF patients [1]; 40 mg RDD BID, Day 7): 2.30 L
- FEV1, median (stable CF patients [1]; 40 mg RDD BID, Day 14 predose): 2.30 L
- FEV1, median (stable CF patients [1]; 40 mg RDD BID, Day 21/ET): 2.07 L
- FEV1, mean (stable CF patients [1]; [3]): 2.06 L
- FEV1, median (stable CF patients [1]; [3]): 1.95 L
- FEV1, median (stable CF patients [1]; 80 mg RDD BID, Day 2 predose): 2.00 L
- FEV1, median (stable CF patients [1]; 80 mg RDD BID, Day 7): 2.08 L
- FEV1, median (stable CF patients [1]; 80 mg RDD BID, Day 14 predose): 2.10 L
- FEV1, mean (stable CF patients [1]; 80 mg RDD BID, Day 21/ET): 2.03 L
- FEV1, median (stable CF patients [1]; 80 mg RDD BID, Day 21/ET): 2.04 L
- FEV1, mean (stable CF patients [1]; [4]): 2.56 L
- FEV1, median (stable CF patients [1]; [4]): 2.23 L
- FEV1, mean (stable CF patients [1]; 120 mg RDD BID, Day 2 predose): 2.73 L
- FEV1, median (stable CF patients [1]; 120 mg RDD BID, Day 2 predose): 2.38 L
- FEV1, mean (stable CF patients [1]; 120 mg RDD BID, Day 7): 3.07 L
- FEV1, median (stable CF patients [1]; 120 mg RDD BID, Day 7): 2.40 L
- FEV1, mean (stable CF patients [1]; 120 mg RDD BID, Day 14 predose): 3.12 L
- FEV1, median (stable CF patients [1]; 120 mg RDD BID, Day 14 predose): 2.57 L
- FEV1, mean (stable CF patients [1]; 120 mg RDD BID, Day 21/ET): 2.75 L
- FEV1, median (stable CF patients [1]; 120 mg RDD BID, Day 21/ET): 2.48 L
- Respiratory domain of CFQ-R, Change from Baseline to Day 14, Mean (stable CF patients [2]; EE population, 120 mg QD): 4.3
- Respiratory domain of CFQ-R, Change from Baseline to Day 14, Median (stable CF patients [2]; EE population, 120 mg QD): 5.5
- Respiratory domain of CFQ-R, Change from Baseline to Day 28, Mean (stable CF patients [2]; EE population, 120 mg QD): 1.6
- Respiratory domain of CFQ-R, Change from Baseline to Day 28, Median (stable CF patients [2]; EE population, 120 mg QD): 0.0
- Respiratory domain of CFQ-R, Day 1, Mean (stable CF patients [2]; EE population, 120 mg QD): 63.5
- Respiratory domain of CFQ-R, Day 1, Median (stable CF patients [2]; EE population, 120 mg QD): 66.7
- Respiratory domain of CFQ-R, Day 14, Mean (stable CF patients [2]; EE population, 120 mg QD): 67.8
- Respiratory domain of CFQ-R, Day 14, Median (stable CF patients [2]; EE population, 120 mg QD): 66.7
- Respiratory domain of CFQ-R, Day 28, Mean (stable CF patients [2]; EE population, 120 mg QD): 65.1
- Respiratory domain of CFQ-R, Day 28, Median (stable CF patients [2]; EE population, 120 mg QD): 66.7
- Respiratory domain of CFQ-R, Change from Baseline to Day 14, Mean (stable CF patients [2]; EE population, 240 mg BID): 8.5
- Respiratory domain of CFQ-R, Change from Baseline to Day 14, Median (stable CF patients [2]; EE population, 240 mg BID): 5.6
- Respiratory domain of CFQ-R, Change from Baseline to Day 28, Mean (stable CF patients [2]; EE population, 240 mg BID): 5.2
- Respiratory domain of CFQ-R, Change from Baseline to Day 28, Median (stable CF patients [2]; EE population, 240 mg BID): 5.5
- Respiratory domain of CFQ-R, Day 1, Mean (stable CF patients [2]; EE population, 240 mg BID): 60.3
- Respiratory domain of CFQ-R, Day 1, Median (stable CF patients [2]; EE population, 240 mg BID): 61.1
- Respiratory domain of CFQ-R, Day 14, Mean (stable CF patients [2]; EE population, 240 mg BID): 68.8
- Respiratory domain of CFQ-R, Day 14, Median (stable CF patients [2]; EE population, 240 mg BID): 72.2
- Respiratory domain of CFQ-R, Day 28, Mean (stable CF patients [2]; EE population, 240 mg BID): 66.0
- Respiratory domain of CFQ-R, Day 28, Median (stable CF patients [2]; EE population, 240 mg BID): 72.2
- Respiratory domain of CFQ-R, Change from Baseline to Day 14, Mean (stable CF patients [2]; EE population, 240 mg QD): 2.1
- Respiratory domain of CFQ-R, Change from Baseline to Day 14, Median (stable CF patients [2]; EE population, 240 mg QD): 0.0
- Respiratory domain of CFQ-R, Change from Baseline to Day 28, Mean (stable CF patients [2]; EE population, 240 mg QD): 1.0
- Respiratory domain of CFQ-R, Change from Baseline to Day 28, Median (stable CF patients [2]; EE population, 240 mg QD): 0.0
- Respiratory domain of CFQ-R, Day 1, Mean (stable CF patients [2]; EE population, 240 mg QD): 60.8
- Respiratory domain of CFQ-R, Day 1, Median (stable CF patients [2]; EE population, 240 mg QD): 61.1
- Respiratory domain of CFQ-R, Day 14, Mean (stable CF patients [2]; EE population, 240 mg QD): 63.2
- Respiratory domain of CFQ-R, Day 14, Median (stable CF patients [2]; EE population, 240 mg QD): 66.7
- Respiratory domain of CFQ-R, Day 28, Mean (stable CF patients [2]; EE population, 240 mg QD): 61.7
- Respiratory domain of CFQ-R, Day 28, Median (stable CF patients [2]; EE population, 240 mg QD): 66.7
- Respiratory domain of CFQ-R, Change from Baseline to Day 14, Mean (stable CF patients [2]; [5]): 5.3
- Respiratory domain of CFQ-R, Change from Baseline to Day 14, Median (stable CF patients [2]; [5]): 5.6
- Respiratory domain of CFQ-R, Change from Baseline to Day 28, Mean (stable CF patients [2]; [5]): 3.0
- Respiratory domain of CFQ-R, Change from Baseline to Day 28, Median (stable CF patients [2]; [5]): 0.0
- Respiratory domain of CFQ-R, Day 1, Mean (stable CF patients [2]; [5]): 60.5
- Respiratory domain of CFQ-R, Day 1, Median (stable CF patients [2]; [5]): 61.1
- Respiratory domain of CFQ-R, Day 14, Mean (stable CF patients [2]; [5]): 66.0
- Respiratory domain of CFQ-R, Day 14, Median (stable CF patients [2]; [5]): 66.7
- Respiratory domain of CFQ-R, Day 28, Mean (stable CF patients [2]; [5]): 63.8
- Respiratory domain of CFQ-R, Day 28, Median (stable CF patients [2]; [5]): 66.7
- CFQ-R respiratory, mean change from baseline (stable CF patients [2]; EE, 120 mg QD, Baseline to Day 28): 1.0 units
- Respiratory domain of CFQ-R, Change from Baseline to Day 14, Mean (stable CF patients [2]; MITT population, 120 mg QD): 4.5
- Respiratory domain of CFQ-R, Change from Baseline to Day 14, Median (stable CF patients [2]; MITT population, 120 mg QD): 5.5
